Results from patent publication US10532980B2, “N-methyl pyrazoles” (Prosetta Antiviral, Inc., priority 2015, dated 2020).

Tested on: Influenza A virus (A/WSN/1933(H1N1))
Experiment: microbe, parasite or virus in culture
Assay type: cell-based
Conditions: MDCK, 24 h with compound, then 2 h drug-free medium

Structure (SMILES) | EC90
Cn1nc(C(C)(C)C)cc1C(=O)NCc1cc(Cl)c2c(c1)OCCCO2 [Compound 45, 3-(tert-butyl)-N-((9-chloro-3,4-dihydro-2H-benzo[b][1,4]dioxepin-7-yl)methyl)-1-methyl-1H-pyrazole-5-carboxamide] | 1 µM
COc1ccc(F)c(CNC(=O)c2cc(C(C)(C)C)nn2C)c1OC [Compound 46, 3-(tert-butyl)-N-(6-fluoro-2,3-dimethoxybenzyl)-1-methyl-1H-pyrazole-5-carboxamide] | 1 µM
